Tests used:
winter wheat = experiment: Post-emergence test, herbicidal activity on winter wheat; type: in vivo; conditions: 21 days after application, average of 3 tests
Excerpt: (§1) The test plants (Avena and winter wheat) are raised under greenhouse conditions in seed trays to a post-application stage (1.5- to 2-leaf stage). Pinoxaden is then applied to the test plants either alone or in admixture with component b) and optionally c). For both applications an additive is used which contains per litre 45% by weight Agnique ME 18 RD-F and 25% by weight Emulsogen M in Solvesso 200 ND. Application of pinoxaden is effected in the form of an emulsifiable concentrate (EC 100), and component b) and optionally c) is used in the form of WP 25. Those formulations are used to prepare spray mixtures, each of 200 litres, which contain 50 g or 100 g of pinoxaden and component b) and optionally c) and in each case 0.5% of additive (based on the volume of the spray mixtures). The tests are evaluated 21 days after application (herbicidal activity 100%=plant completely dead; herbicidal activity 0%=no phytotoxic action on the plant). The results, which are values averaged from 3 tests, are compiled in the following Table.

Avena = experiment: Post-emergence test, herbicidal activity on Avena; type: in vivo; conditions: 21 days after application, average of 3 tests
Excerpt: as §1

[1] = 100 g/ha pinoxaden + 0.5% additive

CCc1cc(C)cc(CC)c1-c1c(OC(=O)C(C)(C)C)n2n(c1=O)CCOCC2 [pinoxaden]
Herbicidal activity on Winter wheat (winter wheat; 50 g/ha pinoxaden + 0.5% additive, 0%=no phytotoxic action): 8%
Herbicidal activity on Winter wheat (winter wheat; [1]): 8%
Herbicidal activity on Avena (Avena; 50 g/ha pinoxaden + 0.5% additive, 100%=plant completely dead): 82%
Herbicidal activity on Avena (Avena; [1]): 87%

From US20100120618A1, “HERBICIDAL COMPOSITION” (SYNGENTA CROP PROTECTION, INC., priority 2007, published 2010)
